How the values were obtained:
CDK9/CycT1 = molecular target: T1, CDK9/CycT1 (Homo sapiens, UniProt P50750); test: CDK9/CycT1 high ATP kinase assay (TR-FRET, 2 mM ATP); assay type: biochemical; conditions: 2 mM ATP (high ATP); median; read-out: CDK9/CyclinT1, 2 mM ATP (high ATP), IC50 (median)
T1 construct: Recombinant full-length His-tagged human CDK9 and CycT1; purchased Life Technologies PV4131; host or cells: insect cells
Summary of the method: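 Full-length His-tagged human CDK9/CycT1 (insect cell, ~0.5 μg/mL) preincubated 15 min at 22 °C with compound in Tris pH 8.0, MgCl2, DTT buffer before reaction with biotinylated peptide substrate at high ATP (2 mM).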

[1] = tested on: BRCA1 mRNA expression in MDA-MB-231 cells; test: qRT-PCR assay: BRCA1 mRNA expression in MDA-MB-231; assay type: cell-based, human; conditions: Homo sapiens, MDA-MB-231, Inhibition of BRCA1 mRNA expression in MDA-MB-231 cells; median; read-out: RTqPCR-MDA-MB-231, IC50, BRCA1 (median)
Summary of the method: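 GAPDH-normalised RT-qPCR measures the transcript after 24 h continuous compound treatment of cells seeded at 200,000/well one day earlier.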

[2] = tested on: MDA-MB-231, human breast cancer cells; test: Proliferation assay MDA-MB-231 (crystal violet, 4 days); assay type: cell-based; conditions: Homo sapiens, MDA-MB-231, 96 h, MDA-MB-231 cells, median, read-out: Prolif-MDA MB-231, IC50-[mol/l] (median)
Summary of the method: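 Following a 24 h attachment in 10% fetal calf serum medium, cells receive test substance over 0.01-10 µmol/L for 4 days. Dye retained by fixed cells is eluted and read at 595 nm; cell number change is referenced to day-0 and untreated wells.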

T1 sequence (P50750 whole entry): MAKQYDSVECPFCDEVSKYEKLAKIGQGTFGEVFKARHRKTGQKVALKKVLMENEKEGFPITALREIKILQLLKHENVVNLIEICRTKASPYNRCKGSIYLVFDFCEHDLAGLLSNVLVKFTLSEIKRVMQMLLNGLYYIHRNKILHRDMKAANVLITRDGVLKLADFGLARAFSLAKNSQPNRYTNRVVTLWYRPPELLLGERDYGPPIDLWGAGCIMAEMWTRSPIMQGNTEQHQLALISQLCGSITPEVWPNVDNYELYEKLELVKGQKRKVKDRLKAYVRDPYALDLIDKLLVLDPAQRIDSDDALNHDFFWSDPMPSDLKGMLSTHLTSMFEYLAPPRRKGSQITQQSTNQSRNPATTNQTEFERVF
T1 sequence (O60563 whole entry partner): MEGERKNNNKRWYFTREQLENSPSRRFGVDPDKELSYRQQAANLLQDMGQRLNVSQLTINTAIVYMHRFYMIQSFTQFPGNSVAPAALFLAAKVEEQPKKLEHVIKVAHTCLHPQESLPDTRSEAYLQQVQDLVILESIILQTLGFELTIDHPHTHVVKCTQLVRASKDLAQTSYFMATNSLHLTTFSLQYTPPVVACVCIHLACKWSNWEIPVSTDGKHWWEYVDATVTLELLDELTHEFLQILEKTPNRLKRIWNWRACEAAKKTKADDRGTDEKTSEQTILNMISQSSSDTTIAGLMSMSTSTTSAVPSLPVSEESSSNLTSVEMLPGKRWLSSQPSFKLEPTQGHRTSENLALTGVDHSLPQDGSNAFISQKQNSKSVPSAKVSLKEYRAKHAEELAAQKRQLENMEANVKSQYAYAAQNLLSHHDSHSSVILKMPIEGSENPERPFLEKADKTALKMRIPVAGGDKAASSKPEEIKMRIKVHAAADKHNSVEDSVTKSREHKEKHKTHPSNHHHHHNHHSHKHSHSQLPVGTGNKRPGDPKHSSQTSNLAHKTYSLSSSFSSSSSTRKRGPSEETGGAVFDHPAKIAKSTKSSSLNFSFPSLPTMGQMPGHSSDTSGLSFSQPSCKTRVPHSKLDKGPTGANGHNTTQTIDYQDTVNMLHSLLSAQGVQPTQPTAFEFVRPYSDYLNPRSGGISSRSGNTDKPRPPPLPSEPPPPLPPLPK

For `Cc1ccc2[nH]c(CNc3nc(N4CCOCC4)nc4c(C5CC5)cnn34)nc2c1` [Example 193, 8-cyclopropyl-N-[(5-methyl-1H-benzimidazol-2-yl)methyl]-2-(morpholin-4-yl)pyrazolo[1,5-a][1,3,5]triazin-4-amine], the IC50 (CDK9/CycT1) was > 20000 nM, the IC50 [1] was 3.65 nM and the IC50 [2] was 6.64 nM.

`Cc1ccc2[nH]c(CNc3nc(N4C[C@H]5C[C@@H]4CO5)nc4c(Br)cnn34)nc2c1` [Example 192, 8-bromo-N-[(5-methyl-1H-benzimidazol-2-yl)methyl]-2-[(1R,4R)-2-oxa-5-azabicyclo[2.2.1]heptan-5-yl]pyrazolo[1,5-a][1,3,5]triazin-4-amine] was tested, and the IC50 (CDK9/CycT1) was > 20000 nM, the IC50 [1] was 2.05 nM and the IC50 [2] was 4.91 nM.

Compound `OC[C@@H]1CCCCN1c1nc(NCc2nc3c(F)cccc3[nH]2)n2ncc(C3CC3)c2n1` [Example 189, [(2S)-1-(8-cyclopropyl-4-{[(4-fluoro-1H-benzimidazol-2-yl)methyl]amino}pyrazolo[1,5-a][1,3,5]triazin-2-yl)piperidin-2-yl]methanol] has an IC50 (CDK9/CycT1) of 2200 nM, an IC50 [1] of 1.98 nM and an IC50 [2] of 10.7 nM.

`Brc1cnn2c(NCc3nc4ccccc4[nH]3)nc(N3CCC4(CCCN4)C3)nc12` (stereo not drawn) [Example 215, N-(1H-benzimidazol-2-ylmethyl)-8-bromo-2-(1,7-diazaspiro[4.4]nonan-7-yl)pyrazolo[1,5-a][1,3,5]triazin-4-amine] was tested, and the IC50 (CDK9/CycT1) was > 20000 nM, the IC50 [1] was 131 nM and the IC50 [2] was 129 nM.

Reference: patent publication US20230117034A1, “PYRAZOLOTRIAZINES” (Bayer Aktiengesellschaft, priority 2019, published 2023)
